We go through two molecules from publication PMC12630686, “A degron-mimicking molecular glue drives CRBN homo-dimerization and degradation” (Nature Communications, 2025).

The target of experiment [1] is T1, Cereblon (CRBN) (Homo sapiens, UniProt Q96SW2). As to the kind of experiment: TR-FRET displacement of Cy5-thalidomide from CRBN-DDB1. Further details: 6xHis-CRBN-DDB1 complex; with DDB1. In kind it is binding. Background: TR-FRET usually uses a lanthanide donor and a delayed reading to cut background.
Target sequence in this assay (Q96SW2 40-442): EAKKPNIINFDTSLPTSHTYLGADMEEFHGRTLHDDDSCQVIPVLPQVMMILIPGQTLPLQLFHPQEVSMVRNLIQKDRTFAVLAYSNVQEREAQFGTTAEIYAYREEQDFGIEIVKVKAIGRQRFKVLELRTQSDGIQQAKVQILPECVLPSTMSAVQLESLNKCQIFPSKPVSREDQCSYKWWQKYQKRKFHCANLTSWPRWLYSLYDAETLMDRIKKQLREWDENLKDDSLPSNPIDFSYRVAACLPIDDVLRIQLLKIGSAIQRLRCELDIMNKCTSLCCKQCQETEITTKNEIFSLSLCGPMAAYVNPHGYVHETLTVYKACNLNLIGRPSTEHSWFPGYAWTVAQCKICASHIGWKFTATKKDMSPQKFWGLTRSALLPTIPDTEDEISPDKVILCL
Target sequence in this assay (Q16531 whole entry partner): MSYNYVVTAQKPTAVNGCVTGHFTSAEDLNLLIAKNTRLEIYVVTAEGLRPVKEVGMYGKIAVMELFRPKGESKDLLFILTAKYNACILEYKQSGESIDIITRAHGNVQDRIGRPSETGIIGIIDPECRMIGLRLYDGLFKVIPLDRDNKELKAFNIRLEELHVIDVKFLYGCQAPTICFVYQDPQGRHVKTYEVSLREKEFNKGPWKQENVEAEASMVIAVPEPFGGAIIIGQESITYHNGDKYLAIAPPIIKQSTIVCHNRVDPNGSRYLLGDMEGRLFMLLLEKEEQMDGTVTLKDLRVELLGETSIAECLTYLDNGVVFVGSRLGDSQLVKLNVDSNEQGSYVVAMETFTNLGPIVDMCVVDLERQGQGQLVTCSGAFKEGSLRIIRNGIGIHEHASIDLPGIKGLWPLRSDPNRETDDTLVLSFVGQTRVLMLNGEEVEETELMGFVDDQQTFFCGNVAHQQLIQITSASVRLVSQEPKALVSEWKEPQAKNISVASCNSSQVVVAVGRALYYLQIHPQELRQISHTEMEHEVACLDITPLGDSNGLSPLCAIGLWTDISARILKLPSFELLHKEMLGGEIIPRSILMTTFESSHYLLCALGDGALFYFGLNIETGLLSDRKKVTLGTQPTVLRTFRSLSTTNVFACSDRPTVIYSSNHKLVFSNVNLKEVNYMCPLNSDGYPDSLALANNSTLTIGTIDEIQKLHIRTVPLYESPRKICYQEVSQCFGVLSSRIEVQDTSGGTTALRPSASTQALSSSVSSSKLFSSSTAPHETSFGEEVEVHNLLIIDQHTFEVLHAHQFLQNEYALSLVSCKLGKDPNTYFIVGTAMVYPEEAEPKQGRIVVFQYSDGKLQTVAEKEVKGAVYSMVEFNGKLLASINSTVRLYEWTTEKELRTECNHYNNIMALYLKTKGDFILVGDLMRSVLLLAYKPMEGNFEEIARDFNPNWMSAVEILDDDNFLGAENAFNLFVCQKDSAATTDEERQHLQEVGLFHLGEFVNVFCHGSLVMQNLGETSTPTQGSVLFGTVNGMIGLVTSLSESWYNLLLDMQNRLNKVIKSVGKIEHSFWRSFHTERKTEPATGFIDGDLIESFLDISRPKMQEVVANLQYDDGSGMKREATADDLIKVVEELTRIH
In experiment [2] the target is T1, Cereblon (CRBN). As to the kind of experiment: cryo-EM structure ([…] Å and […] Å); TR-FRET thalidomide displacement (IC50); FIDA and SEC-MALS. The class given is binding. Further details: 6xHis-CRBN-DDB1 complex (per checker note), TR-FRET thalidomide displacement; not the cryo-EM CRBN 41-442/DDB1ΔBPB homodimer.
Target sequence in this assay (Q96SW2 whole entry): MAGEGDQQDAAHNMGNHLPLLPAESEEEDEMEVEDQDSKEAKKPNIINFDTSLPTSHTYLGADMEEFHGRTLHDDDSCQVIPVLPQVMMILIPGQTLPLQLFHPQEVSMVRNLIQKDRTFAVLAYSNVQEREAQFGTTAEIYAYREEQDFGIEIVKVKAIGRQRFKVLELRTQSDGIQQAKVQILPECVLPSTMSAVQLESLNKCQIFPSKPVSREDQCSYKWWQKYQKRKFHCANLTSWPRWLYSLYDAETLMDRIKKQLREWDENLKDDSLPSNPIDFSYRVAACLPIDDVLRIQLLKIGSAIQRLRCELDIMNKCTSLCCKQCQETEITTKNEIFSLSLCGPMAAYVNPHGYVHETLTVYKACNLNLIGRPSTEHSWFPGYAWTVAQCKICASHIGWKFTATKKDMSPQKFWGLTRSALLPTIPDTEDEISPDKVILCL
Target sequence in this assay (Q16531 2-1140 partner): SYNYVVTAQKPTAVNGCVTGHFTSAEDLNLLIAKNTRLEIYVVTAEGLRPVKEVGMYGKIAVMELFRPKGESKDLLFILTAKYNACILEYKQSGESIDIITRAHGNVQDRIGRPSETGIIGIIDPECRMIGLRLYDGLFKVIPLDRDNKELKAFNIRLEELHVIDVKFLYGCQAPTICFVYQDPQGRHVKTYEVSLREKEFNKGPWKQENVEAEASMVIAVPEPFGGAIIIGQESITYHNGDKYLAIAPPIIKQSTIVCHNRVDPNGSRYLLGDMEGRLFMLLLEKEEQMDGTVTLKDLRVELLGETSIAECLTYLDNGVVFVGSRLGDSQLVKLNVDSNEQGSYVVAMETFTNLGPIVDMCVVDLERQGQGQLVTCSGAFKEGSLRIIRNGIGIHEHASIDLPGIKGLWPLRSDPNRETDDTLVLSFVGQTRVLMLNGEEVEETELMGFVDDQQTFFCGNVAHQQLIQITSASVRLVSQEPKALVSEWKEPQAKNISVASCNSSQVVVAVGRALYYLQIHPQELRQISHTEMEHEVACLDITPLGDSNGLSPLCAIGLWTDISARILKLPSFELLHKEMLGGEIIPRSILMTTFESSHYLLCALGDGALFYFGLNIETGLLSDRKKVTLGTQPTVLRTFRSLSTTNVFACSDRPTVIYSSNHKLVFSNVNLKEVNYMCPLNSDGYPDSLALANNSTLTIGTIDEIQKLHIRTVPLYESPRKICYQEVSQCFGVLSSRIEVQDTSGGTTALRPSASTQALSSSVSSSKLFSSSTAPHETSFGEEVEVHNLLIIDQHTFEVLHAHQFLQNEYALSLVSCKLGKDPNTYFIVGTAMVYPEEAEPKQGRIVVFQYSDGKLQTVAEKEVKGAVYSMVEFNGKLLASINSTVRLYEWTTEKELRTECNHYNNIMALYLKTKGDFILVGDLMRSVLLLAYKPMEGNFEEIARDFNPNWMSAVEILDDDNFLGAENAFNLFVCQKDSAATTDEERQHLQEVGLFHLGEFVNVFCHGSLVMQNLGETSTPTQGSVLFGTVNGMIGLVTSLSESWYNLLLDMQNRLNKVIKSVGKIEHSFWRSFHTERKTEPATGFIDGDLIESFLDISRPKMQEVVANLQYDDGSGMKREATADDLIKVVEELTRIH

Structures are written as SMILES.

Broadly, the IC50 is the concentration at which inhibition is half-maximal.

In turn, `O=C1CCC(N2Cc3ccc(N4CCC5(CCN(Cc6ccccc6)CC5)C4)cc3C2=O)C(=O)N1` (centres unmarked) [MRT-30568] had a half-inhibitory concentration (IC50) on Cereblon (CRBN) [1] of 0.06 µM.
In the case of `O=C1CCC(N2Cc3ccc(N4CCC5(CCN(C(=O)c6ccccc6)CC5)C4)cc3C2=O)C(=O)N1` (centres unmarked) [MRT-31619], the IC50 on Cereblon (CRBN) [2] turned out to be 0.014 µM.
